The target in the assay is T1, human NOX4 (Homo sapiens, UniProt Q9NPH5).
T1 construct: expressed in transfected cells; membrane fraction used
T1 sequence (Q9NPH5 1-578): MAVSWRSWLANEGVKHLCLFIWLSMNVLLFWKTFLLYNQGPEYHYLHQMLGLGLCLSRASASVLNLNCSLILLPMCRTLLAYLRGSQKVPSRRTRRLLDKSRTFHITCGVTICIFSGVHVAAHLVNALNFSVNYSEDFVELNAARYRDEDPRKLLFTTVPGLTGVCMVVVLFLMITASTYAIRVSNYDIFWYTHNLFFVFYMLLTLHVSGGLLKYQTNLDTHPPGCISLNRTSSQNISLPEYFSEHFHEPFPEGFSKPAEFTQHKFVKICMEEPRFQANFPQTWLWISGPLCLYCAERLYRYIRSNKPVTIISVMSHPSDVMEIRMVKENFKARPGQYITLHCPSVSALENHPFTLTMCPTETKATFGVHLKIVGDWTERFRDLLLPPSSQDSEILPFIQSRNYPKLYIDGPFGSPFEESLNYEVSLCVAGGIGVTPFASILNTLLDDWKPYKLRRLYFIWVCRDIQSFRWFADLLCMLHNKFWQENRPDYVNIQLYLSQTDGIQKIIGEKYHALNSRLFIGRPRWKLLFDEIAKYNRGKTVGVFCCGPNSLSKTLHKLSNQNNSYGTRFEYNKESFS
T1 sequence (P13498 1-195 partner): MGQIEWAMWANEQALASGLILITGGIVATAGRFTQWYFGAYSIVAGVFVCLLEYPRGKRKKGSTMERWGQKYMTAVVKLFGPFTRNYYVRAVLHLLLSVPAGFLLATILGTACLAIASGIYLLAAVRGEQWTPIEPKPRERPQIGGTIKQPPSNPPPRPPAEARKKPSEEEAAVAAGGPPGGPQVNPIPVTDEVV
The experiment in a line: Cell free membrane based in vitro NOX4 assay: H2O2 production by membranes expressing human NOX4, measured with Amplex Red. The format is biochemical. Conditions: for inhibition at 1 µM: 1.0 μM compound, read-out: Percentage inhibition at 1.0 μM; for inhibition at 10 µM: 10.0 μM compound, read-out: Percentage inhibition at 10.0 μM; for pIC50: class symbols. A digest of the protocol:
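IC50 came from concentration-response curves fitted as % of the inhibitor-free maximum. H2O2 formation was monitored for 10 min via Amplex Red/HRP fluorescence (544/590 nm) after NADPH start. Membranes from a stable hNOX4/HEK line had 20 min exposure to inhibitor beforehand at pH 7.4.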

pIC50: −log10 of the molar value.

For `COc1ccc(-c2[nH]c3c(c(C)nn3Cc3ccccc3)c(=O)c2O)c(F)c1` [Example 77, 1-Benzyl-6-(2-fluoro-4-methoxyphenyl)-5-hydroxy-3-methyl-1H-pyrazolo[3,4-b]pyridin-4(7H)-one], the inhibition at 1 µM came to 88.9%, the inhibition at 10 µM was 72.1% and the negative logarithm of the IC50 (pIC50) is 6.82 to 7.00.
The matching figures for `NC(=O)c1nsc2c(=O)c(O)c(-c3ccccc3Cl)[nH]c12` [Example 78, 5-(2-Chlorophenyl)-6-hydroxy-7-oxo-4,7-dihydroisothiazolo[4,5-b]pyridine-3-carboxamide]: 55.3%, 89.3% and less than 6.82.
The matching figures for `CCCn1nc(C)c2c(=O)c(O)c(-c3c(F)cccc3F)[nH]c21` [Example 79, 6-(2,6-Difluorophenyl)-5-hydroxy-3-methyl-1-propyl-1H-pyrazolo[3,4-b]pyridin-4(7H)-one]: 78.4%, 81.6% and 6.82 to 7.00.
The corresponding values for `Cc1nn(CCN(C)C)c2[nH]c(-c3ccccc3Cl)c(O)c(=O)c12` [Example 80, 6-(2-Chlorophenyl)-1-(2-(dimethylamino)ethyl)-5-hydroxy-3-methyl-1H-pyrazolo[3,4-b]pyridin-4(7H)-one] are 94%, 97.5% and 7.00 to 7.30.
`CCn1nc(C)c2c(=O)c(O)c(-c3cc(F)ccc3F)[nH]c21` [Example 81, 6-(2,5-Difluorophenyl)-1-ethyl-5-hydroxy-3-methyl-1H-pyrazolo[3,4-b]pyridin-4(7H)-one]: the inhibition at 1 µM came to 93.3%, the inhibition at 10 µM is 81.5% and the pIC50 was less than 6.82.
As for `CCCn1nc(C)c2c(=O)c(O)c(-c3ccc(OC)cc3F)[nH]c21` [Example 82, 6-(2-Fluoro-4-methoxyphenyl)-5-hydroxy-3-methyl-1-propyl-1H-pyrazolo[3,4-b]pyridin-4(7H)-one], the inhibition at 1 µM was determined as 87.5% and the pIC50 was 7.00 to 7.30.
In the case of `Cc1nn(C)c2c(=O)c(O)c(-c3ccccc3Cl)[nH]c12` [Example 83, 5-(2-Chlorophenyl)-6-hydroxy-1,3-dimethyl-1H-pyrazolo[4,3-b]pyridin-7(4H)-one], the inhibition at 1 µM was 74.4%, the inhibition at 10 µM came to 99% and the pIC50 is less than 6.82.
The matching figures for `Cc1nn(Cc2ccc(F)cc2)c2[nH]c(-c3c(F)cccc3F)c(O)c(=O)c12` [Example 84, 6-(2,6-Difluorophenyl)-1-(4-fluorobenzyl)-5-hydroxy-3-methyl-1H-pyrazolo[3,4-b]pyridin-4(7H)-one]: 80.2%, 88.6% and less than 6.82.
The matching figures for `Cn1nc(C(F)F)c2c(=O)c(O)c(-c3ccccc3Cl)[nH]c21` [Example 85, 6-(2-Chlorophenyl)-3-(difluoromethyl)-5-hydroxy-1-methyl-1H-pyrazolo[3,4-b]pyridin-4(7H)-one]: 72.5%, 88% and less than 6.82.
The corresponding values for `Cn1nc(C(F)F)c2c(=O)c(O)c(-c3c(F)cccc3F)[nH]c21` [Example 86, 3-(Difluoromethyl)-6-(2,6-difluorophenyl)-5-hydroxy-1-methyl-1H-pyrazolo[3,4-b]pyridin-4(7H)-one] are 74.5%, 89.8% and less than 6.82.
`Cc1nn(C2CC2)c2[nH]c(-c3c(F)cccc3F)c(O)c(=O)c12` [Example 87, 1-Cyclopropyl-6-(2,6-difluorophenyl)-5-hydroxy-3-methyl-1H-pyrazolo[3,4-b]pyridin-4(7H)-one]: the inhibition at 1 µM was determined as 78.2%, the inhibition at 10 µM stood at 88.5% and the pIC50 is 6.82 to 7.00.
The matching figures for `Cc1nn(CCN2CCOCC2)c2[nH]c(-c3c(F)cccc3F)c(O)c(=O)c12` [Example 88, 6-(2,6-Difluorophenyl)-5-hydroxy-3-methyl-1-(2-morpholinoethyl)-1H-pyrazolo[3,4-b]pyridin-4(7H)-one]: 100%, 100% and 7.00 to 7.30.
The corresponding values for `Cc1nn(CCN(C)C)c2[nH]c(-c3c(F)cccc3F)c(O)c(=O)c12` [Example 89, 6-(2,6-Difluorophenyl)-1-(2-(dimethylamino)ethyl)-5-hydroxy-3-methyl-1H-pyrazolo[3,4-b]pyridin-4(7H)-one] are 100%, 100% and 7.00 to 7.30.
For the compound `COCCn1nc(C)c2c(=O)c(O)c(-c3c(F)cccc3F)[nH]c21` [Example 90, 6-(2,6-Difluorophenyl)-5-hydroxy-1-(2-methoxyethyl)-3-methyl-1H-pyrazolo[3,4-b]pyridin-4(7H)-one], the inhibition at 1 µM came to 100%, the inhibition at 10 µM came to 100% and the pIC50 was 7.00 to 7.30.
Take `CC(C)c1nn(C)c2[nH]c(-c3c(F)cccc3F)c(O)c(=O)c12` [Example 91, 6-(2,6-Difluorophenyl)-5-hydroxy-3-isopropyl-1-methyl-1H-pyrazolo[3,4-b]pyridin-4(7H)one]: the inhibition at 1 µM was determined as 98.3%, the inhibition at 10 µM turned out to be 87.1% and the pIC50 was 7.00 to 7.30.
The corresponding values for `COCCCn1nc(C)c2c(=O)c(O)c(-c3c(F)cccc3F)[nH]c21` [Example 92, 6-(2,6-Difluorophenyl)-5-hydroxy-1-(3-methoxypropyl)-3-methyl-1H-pyrazolo[3,4-b]pyridin-4(7H)-one] are 75.6%, 76.5% and 6.82 to 7.00.
The matching figures for `Cc1ccc(F)c(-c2[nH]c3c(c(C)nn3C3CC3)c(=O)c2O)c1F` [Example 93, 1-Cyclopropyl-6-(2,6-difluoro-3-methylphenyl)-5-hydroxy-3-methyl-1H-pyrazolo[3,4-b]pyridin-4(7H)-one]: 69.1%, 79.6% and less than 6.82.
Regarding `Cc1nn(C2CC2)c2[nH]c(-c3c(F)cc(F)cc3F)c(O)c(=O)c12` [Example 94, 1-Cyclopropyl-5-hydroxy-3-methyl-6-(2,4,6-trifluorophenyl)-1H-pyrazolo[3,4-b]pyridin-4(7H)-one], the inhibition at 1 µM was 72.5%, the inhibition at 10 µM amounted to 80% and the negative logarithm of the IC50 (pIC50) was less than 6.82.
The matching figures for `CCn1nc(C)c2c(=O)c(O)c(-c3cccc(F)c3F)[nH]c21` [Example 95, 6-(2,3-Difluorophenyl)-1-ethyl-5-hydroxy-3-methyl-1H-pyrazolo[3,4-b]pyridin-4(7H)-one]: 71.1%, 62.6% and less than 6.82.
The corresponding values for `Cc1nn(C2CC2)c2[nH]c(-c3cccc(F)c3F)c(O)c(=O)c12` [Example 96, 1-Cyclopropyl-6-(2,3-difluorophenyl)-5-hydroxy-3-methyl-1H-pyrazolo[3,4-b]pyridin-4(7H)-one] are 67.3%, 72.3% and less than 6.82.
On to `CCn1nc(C)c2c(=O)c(O)c(-c3c(F)cc(F)cc3F)[nH]c21` [Example 97, 1-Ethyl-5-hydroxy-3-methyl-6-(2,4,6-trifluorophenyl)-1H-pyrazolo[3,4-b]pyridin-4(7H)-one], for which the inhibition at 1 µM is 76.7%, the inhibition at 10 µM amounted to 78.2% and the negative-log IC50 (pIC50) was less than 6.82.

What is called inhibition is the relative decrease from the control value, in per cent. For orientation: pIC50 means −log10 of the IC50, conventionally taken in molar units. A high value points to a low IC50.

These data come from US20200247800A1, “SUBSTITUTED BICYCLIC HETEROCYCLIC COMPOUNDS AS NADPH OXIDASE INHIBITORS” (Glenmark Pharmaceuticals S.A., priority 2017, published 2020).
